# Data reported in article PMC4076215, “Nickel(II) Complex of Polyhydroxybenzaldehyde N4-Thiosemicarbazone Exhibits Anti-Inflammatory Activity by Inhibiting NF-κB Transactivation” (PLoS ONE, 2014).
# “Also recorded” adds a separate entry of the source.
# Tests used:
# [1] = tested on: NF-κB p65 nuclear translocation; test: NF-κB p65 immunofluorescence staining, LPS-stimulated RAW264.7; format: cell-based; conditions: RAW264.7, 25 µg/ml pre-treatment 4 h, LPS 1 h
# Protocol: (§1) NF-κB Activation Kits (Thermo Scientific) were used as previously described. Cells were pretreated with compounds for 4 h before being stimulated with lipopolysaccharide (LPS) ortumour necrosis factor α (TNFα) for 1 h. Cells were then fixed and permeabilized before probing with NF-κB p65 antibody for 1 h. Staining solution (containing DyLight 488 Goat Anti-Rabbit and Hoechst dye) was then added and incubated for 1 h. The plate with stained cells was evaluated using a Cellomics ArrayScan HCS Reader (Cellomics, PA, USA). Data were captured, extracted and analyzed with ArrayScan II Data Acquisition and Data Viewer version 3.0 (Cellomics).
# NF-κB acts as a central mediator of inflammatory responses and compounds that inhibit NF-κB activation are potential anti-inflammatory agents. To evaluate this, we performed immunofluorescence staining of NF-κB p65. […] In response to LPS stimulation, NF-κB p65 translocated from cytoplasm into the nucleus, implying NF-κB activation (Figure 3). […] Moreover, we observed that complex 6–8 required higher concentration (>50 µg/ml) to elicit similar inhibitory effect (data not shown).
# Figure 3 Effect of N4-substituteted thiosemicarbazone complexes on LPS-induced NF-κB nuclear transloction in RAW264.7 macrophage cells. Staining of Hoechst (nucleus) and NF-κB in RAW264.7 cells. […]
# [2] = tested on: NF-κB p65 nuclear translocation; test: NF-κB p65 immunofluorescence staining, TNFα-stimulated HeLa S3; format: cell-based, human; conditions: HeLa S3, 6.25 µg/ml pretreatment 4 h
# Protocol: as §1
# To examine whether complex 5 blocks the activation of NF-κB by another agonist, similar experiments were performed on HeLa S3 cells induced with TNFα. Similar to LPS-treated RAW264.7 cells, TNFα-induced translocation of NF-κB p65 in HeLa S3 cells (Figure 5A). […] TNF stimulation induced a rapid phosphorylation of IκBα in DMSO treated cells (within 5 minutes).
# Figure 5 Complex 5 blocks TNFα-induced NF-κB nuclear translocation. Complex 5 inhibits TNFα -induced NF-B nuclear translocation. (A) NF-κB activation assay on TNFα treated HeLa S3 cells. Staining of Hoechst (nucleus) and NF-κB in HeLa S3 cells. […] Western blot signal intensities were quantified using ImageJ software. […]
# [3] = tested on: IκBα degradation/phosphorylation and p65 translocation; test: Immunoblot, TNFα-stimulated HeLa S3; format: cell-based, human; conditions: HeLa S3, pretreated 4 h, TNFα stimulation
# Protocol: Cells were pretreated with or without of complex 5 (25 µg/ml or 50 µg/ml) for 4 h before treatment with LPS (10 ng/ml) or TNFα (10 ng/ml), for the indicated times. The cytoplasmic extracts were prepared by using the hypotonic lysis buffer (10 mM Tris, pH 7.5; 1.5 mM MgCl2; 10 mM KCl; 0.5 mM DTT; 0.5 mM PMSF; 1× Protease Inhibitor, 0.1% NP40) followed by incubation on ice for 20 min and centrifugation at 3k rpm at 4°C for 10 min. The supernatants were collected as cytoplasmic extracts. The nuclear pellets were resuspended in the whole cell lysis buffer (25 mM Tris, pH7.5; 420 mM NaCl; 1.5 mM MgCl2; 0.2 mM EDTA; 25% Glycerol; 0.5 mM DTT; 0.5 mM PMSF; 1× Protease Inhibitor). The nuclear extracts were then collected by centrifugation at 15 krpm at 4°C for 10 min. Immunoblotting was performed using antibodies against PARP (F-2, N-20), HSP90a (C-20), p65 (C-20), IκBα (C-21) and p-IκBα from Santa Cruz Biotech.
# To examine whether complex 5 blocks the activation of NF-κB by another agonist, similar experiments were performed on HeLa S3 cells induced with TNFα. Similar to LPS-treated RAW264.7 cells, TNFα-induced translocation of NF-κB p65 in HeLa S3 cells (Figure 5A). […]
# Figure 5 Complex 5 blocks TNFα-induced NF-κB nuclear translocation. […] Western blot signal intensities were quantified using ImageJ software. […]
# COX-2 expression = test: TNF-induced COX-2 expression; format: cell-based; conditions: Figure S1
# Protocol: In addition, we investigated the effect of complex 5 on NF-κB-mediated gene expression in response to TNFα stimulation in human HeLa S3 cells. We treated HeLa S3 cells with complex 5 for 4 h before TNFα treatment for 4 h.
# Supplementary file pone.0100933.s001.pdf: Figure S1 Complex 5 inhibits TNF-induced COX2 expression. (PDF) Click here for additional data file.
# [4] = Liver functional test (serum) after oral dosing; format: in vivo, C57BL/6 mice; conditions: after two weeks
# Protocol: Liver functional test. C57BL/6 mice at age 8-12 weeks old were administrated orally with control PBS or with various concentrations (125 mg/kg, 250 mg/kg and 500 mg/kg) of complex 5. n= 6 (3 male and 3 female mice)/group. After two weeks, sera were collected from the mice for liver functional test.
# Shown were mean ± SD. TBIL: Total Bilirubin, BC: Conjugated
# Bilirubin, ALP: Alkaline Phophatase, ALT: Alanine Aminotransferase, AST: Aspartate Transaminase, GGT: G-Glutamyl Transferase.
# HeLa S3 cells = test: Cell proliferation (MTT) assay, HeLa S3
# Protocol: A total number of 1.0×10^4 cells per well were seeded into a 96-well plate and incubated overnight at 37°C in 5% CO2. The next day, the cells were treated with a two-fold serial dilution of compounds. MTT assays were performed as described [27]. After 48 h, (4,5-dimethylthiazol-2-yl-2,5-diphenyltetrazoliumbromide) was added at 2 mg/ml. After 3 h of incubation at 37°C in 5% CO2, DMSO was added to dissolve the formazan crystals. The plates were then read in Chameleon multitechnology microplate reader (Hidex, Turku, Finland) at 570 nm absorbance. The ratio of the absorbance of treated cells to the absorbance of DMSO-treated control cells was determined as percentage cell viability.
# To examine whether synthesized Ni(II) thiosemicarbazone ligands or Ni(II)-phosphine complexes were cytotoxic, we treated RAW264.7 (leukemic monocyte macrophage) and HeLa S3 (cervical adenocarcinoma) cells with these compounds for 48 h. The cell viability was determined with MTT assays [33].
smiles,measurement,setting,value
"NC1=[S+][Ni-2]2([P+](c3ccccc3)(c3ccccc3)c3ccccc3)[O]c3c(O)cccc3C=[N+]2N1.[Cl-] [complex 5, {2-[(2-Carbamothiolylhydrazin-1-ylidene-[kappa]2N1,S)methyl]-6-hydroxyphenolato-[kappa]O1}(triphenylphosphine-[kappa]P)nickel(II) chloride]",Inhibition of LPS-mediated NF-κB p65 nuclear translocation,[1],efficiently inhibited; also recorded: marked inhibition
same,Inhibition of TNFα-induced NF-κB nuclear translocation,[2],significantly blocked; also recorded: sufficient to prevent
same,IκBα degradation and p65 translocation (immunoblot),[3],dramatically reduced
same,TNF-mediated phosphorylation of IκBα (immunoblot),[3],completely abolished
same,TNF-induced expression of COX-2,COX-2 expression,inhibited TNF-induced expression of COX-2 in a dose dependent manner
same,ALP (Alkaline Phophatase),[4]; 125 mg/kg oral,192.00 IU/L
same,ALT (Alanine Aminotransferase),[4]; 125 mg/kg oral,69.00 IU/L
same,AST (Aspartate Transaminase),[4]; 125 mg/kg oral,421.00 IU/L
same,Albumin,[4]; 125 mg/kg oral,18.00 g/L
same,BC (Conjugated Bilirubin),[4]; 125 mg/kg oral,< 1 µmol/L
same,GGT (G-Glutamyl Transferase),[4]; 125 mg/kg oral,< 3 IU/L
same,Globulin,[4]; 125 mg/kg oral,42.00 g/L
same,TBIL (Total Bilirubin),[4]; 125 mg/kg oral,3.00 µmol/L
same,Total Protein,[4]; 125 mg/kg oral,60.00 g/L
same,ALP (Alkaline Phophatase),[4]; 250 mg/kg oral,195.00 IU/L
same,ALT (Alanine Aminotransferase),[4]; 250 mg/kg oral,70.00 IU/L
same,AST (Aspartate Transaminase),[4]; 250 mg/kg oral,414.00 IU/L
same,Albumin,[4]; 250 mg/kg oral,17.00 g/L
same,BC (Conjugated Bilirubin),[4]; 250 mg/kg oral,< 1 µmol/L
same,GGT (G-Glutamyl Transferase),[4]; 250 mg/kg oral,< 3 IU/L
same,Globulin,[4]; 250 mg/kg oral,42.00 g/L
same,TBIL (Total Bilirubin),[4]; 250 mg/kg oral,2.50 µmol/L
same,Total Protein,[4]; 250 mg/kg oral,59.00 g/L
same,ALP (Alkaline Phophatase),[4]; 500 mg/kg oral,219.50 IU/L
same,ALT (Alanine Aminotransferase),[4]; 500 mg/kg oral,70.00 IU/L
same,AST (Aspartate Transaminase),[4]; 500 mg/kg oral,316.50 ± 78.49 IU/L
same,Albumin,[4]; 500 mg/kg oral,16.00 g/L
same,BC (Conjugated Bilirubin),[4]; 500 mg/kg oral,< 1 µmol/L
same,GGT (G-Glutamyl Transferase),[4]; 500 mg/kg oral,< 3 IU/L
same,Globulin,[4]; 500 mg/kg oral,37.50 g/L
same,TBIL (Total Bilirubin),[4]; 500 mg/kg oral,3.00 µmol/L
same,Total Protein,[4]; 500 mg/kg oral,53.50 g/L
same,Cell viability,"HeLa S3 cells; HeLa S3, 6.25 µg/ml, 4 h treatment",> 90%
same,"IC50 (cell viability, MTT)","HeLa S3 cells; HeLa S3 cells, 48 h treatment",29.31 ± 1.10 µg/mL
